Reference: ChEMBL document CHEMBL3217447, “Biosynthetic gene cluster and antimicrobial activity of the elfamycin antibiotic factumycin” (2012)
In brackets after ≈: the same amount, converted by molar mass.

Experiments:
Format in all cases: functional
Acinetobacter baumannii [1] = assay: Antibacterial activity against Acinetobacter baumannii B00919434 assessed as growth inhibition
Acinetobacter baumannii [2] = assay: Antibacterial activity against Acinetobacter baumannii mrH3 assessed as growth inhibition
Acinetobacter baumannii [3] = assay: Antibacterial activity against Acinetobacter baumannii mrH4 assessed as growth inhibition
Acinetobacter baumannii [4] = assay: Antibacterial activity against Acinetobacter baumannii mrH5 assessed as growth inhibition
Acinetobacter baumannii [5] = assay: Antibacterial activity against Acinetobacter baumannii GDW786 assessed as growth inhibition
Acinetobacter baumannii [6] = assay: Antibacterial activity against Acinetobacter baumannii GDW787 assessed as growth inhibition
Enterococcus faecalis [7] = assay: Antibacterial activity against Enterococcus faecalis ATCC 29212 assessed as growth inhibition
Enterococcus faecalis [8] = assay: Antibacterial activity against Enterococcus faecalis ATCC 51299 assessed as growth inhibition
Escherichia coli [9] = assay: Antibacterial activity against Escherichia coli ATCC 25922 assessed as growth inhibition
Escherichia coli [10] = assay: Antibacterial activity against Escherichia coli GDW914 assessed as growth inhibition
Escherichia coli [11] = assay: Antibacterial activity against Escherichia coli GDW916 assessed as growth inhibition
Escherichia coli [12] = assay: Antibacterial activity against Escherichia coli GDW918 assessed as growth inhibition
Klebsiella pneumoniae [13] = assay: Antibacterial activity against Klebsiella pneumoniae GDW915 assessed as growth inhibition
Klebsiella pneumoniae [14] = assay: Antibacterial activity against Klebsiella pneumoniae GDW917 assessed as growth inhibition
Pseudomonas aeruginosa [15] = assay: Antibacterial activity against Pseudomonas aeruginosa GDW788 assessed as growth inhibition
Pseudomonas aeruginosa [16] = assay: Antibacterial activity against Pseudomonas aeruginosa GDW789 assessed as growth inhibition
Pseudomonas aeruginosa [17] = assay: Antibacterial activity against Pseudomonas aeruginosa GDW790 assessed as growth inhibition
Pseudomonas aeruginosa [18] = assay: Antibacterial activity against Pseudomonas aeruginosa GDW787 assessed as growth inhibition
Pseudomonas aeruginosa [19] = assay: Antibacterial activity against Pseudomonas aeruginosa PAO1 assessed as growth inhibition
Staphylococcus aureus [20] = assay: Antibacterial activity against Staphylococcus aureus ATCC 29213 assessed as growth inhibition
Staphylococcus aureus [21] = assay: Antibacterial activity against Staphylococcus aureus CMRSA5 assessed as growth inhibition
Staphylococcus aureus [22] = assay: Antibacterial activity against Staphylococcus aureus CMRSA6 assessed as growth inhibition
Staphylococcus aureus [23] = assay: Antibacterial activity against Staphylococcus aureus CMRSA7 assessed as growth inhibition
Acinetobacter baumannii [24] = assay: Antibacterial activity against Acinetobacter baumannii mrH4 by microdilution checkerboard method in presence of tetracycline
Acinetobacter baumannii [25] = assay: Antibacterial activity against Acinetobacter baumannii ATCC 17978 by microdilution checkerboard method in presence of tetracycline
Escherichia coli [26] = assay: Antibacterial activity against Escherichia coli […] by microdilution checkerboard method in presence of tetracycline
Enterococcus faecalis [27] = assay: Antibacterial activity against Enterococcus faecalis ATCC 29212 by microdilution checkerboard method in presence of tetracycline
Klebsiella pneumoniae [28] = assay: Antibacterial activity against Klebsiella pneumoniae by microdilution checkerboard method in presence of tetracycline
Pseudomonas aeruginosa [29] = assay: Antibacterial activity against Pseudomonas aeruginosa PAO1 by microdilution checkerboard method in presence of tetracycline
Staphylococcus aureus [30] = assay: Antibacterial activity against Staphylococcus aureus ATCC 29213 by microdilution checkerboard method in presence of tetracycline
Acinetobacter baumannii [31] = assay: Antibacterial activity against Acinetobacter baumannii ATCC 17978 assessed as growth inhibition
Acinetobacter baumannii [32] = assay: Antibacterial activity against Acinetobacter baumannii B00636584 assessed as growth inhibition

- MIC (Acinetobacter baumannii [1]): 8 µg/mL (≈ 10.3 µM)
- MIC (Acinetobacter baumannii [2]): 16 µg/mL (≈ 20.5 µM)
- MIC (Acinetobacter baumannii [3]): 8 µg/mL (≈ 10.3 µM)
- MIC (Acinetobacter baumannii [4]): 8 µg/mL (≈ 10.3 µM)
- MIC (Acinetobacter baumannii [5]): 128 µg/mL (≈ 164 µM)
- MIC (Acinetobacter baumannii [6]): 128 µg/mL (≈ 164 µM)
- MIC (Enterococcus faecalis [7]): 16 µg/mL (≈ 20.5 µM)
- MIC (Enterococcus faecalis [8]): 64 µg/mL (≈ 82.2 µM)
- MIC (Escherichia coli [9]): 64 µg/mL (≈ 82.2 µM)
- MIC (Escherichia coli [10]): 128 µg/mL (≈ 164 µM)
- MIC (Escherichia coli [11]): 128 µg/mL (≈ 164 µM)
- MIC (Escherichia coli [12]): 128 µg/mL (≈ 164 µM)
- MIC (Klebsiella pneumoniae [13]): > 128 µg/mL
- MIC (Klebsiella pneumoniae [14]): 128 µg/mL (≈ 164 µM)
- MIC (Pseudomonas aeruginosa [15]): 128 µg/mL (≈ 164 µM)
- MIC (Pseudomonas aeruginosa [16]): > 128 µg/mL
- MIC (Pseudomonas aeruginosa [17]): 128 µg/mL (≈ 164 µM)
- MIC (Pseudomonas aeruginosa [18]): 128 µg/mL (≈ 164 µM)
- MIC (Pseudomonas aeruginosa [19]): 128 µg/mL (≈ 164 µM)
- MIC (Staphylococcus aureus [20]): 32 µg/mL (≈ 41.1 µM)
- MIC (Staphylococcus aureus [21]): > 128 µg/mL
- MIC (Staphylococcus aureus [22]): > 128 µg/mL
- MIC (Staphylococcus aureus [23]): > 128 µg/mL
- MIC (Acinetobacter baumannii [31]): 32 µg/mL (≈ 41.1 µM)
- MIC (Acinetobacter baumannii [32]): 16 µg/mL (≈ 20.5 µM)
Compound: C/C=C\C=C\[C@@H]1O[C@](O)([C@H](CC)C(=O)NC/C=C/C=C(\C)[C@@H](OC)[C@@H](C)C(O)[C@@H](O)/C=C/C=C/C=C/C=C(\C)C(=O)c2c(O)ccn(C)c2=O)C[C@H](O)C1(C)C (some centres not stated)
- fractional inhibitory concentration index (FICI) (Acinetobacter baumannii [24]): 0.25
- fractional inhibitory concentration index (FICI) (Acinetobacter baumannii [25]): 2
- fractional inhibitory concentration index (FICI) (Escherichia coli [26]): 2
- fractional inhibitory concentration index (FICI) (Enterococcus faecalis [27]): 0.375
- fractional inhibitory concentration index (FICI) (Klebsiella pneumoniae [28]): 0.5
- fractional inhibitory concentration index (FICI) (Pseudomonas aeruginosa [29]): 2
- fractional inhibitory concentration index (FICI) (Staphylococcus aureus [30]): 2
